Values after ≈ are worked out from the molar mass of the structure shown. Values joined by “and” are separate entries in the source; they are usually repeats but may differ in a detail not shown here. Equal values may be shown once. Read-outs that look alike come from different tables or passages of the source.
Experiments:
MRSA Strain 5749 [1] = assay: MIC, broth microdilution; assay type: cell-based; conditions: Staphylococcus aureus, clinical strain, read-out: MIC MRSA Strain 5749
Method: (§1) The antibacterial activity of the compounds was evaluated using the broth microdilution method in 96‐well microplates according to the Clinical and Laboratory Standards Institute protocol (CLSI, 2017). First, synthetic compounds were diluted in Mueller Hinton broth (MHB; Oxoid, Thermo Scientific, UK) to concentrations ranging from 20 to 2.5 μg/ml. The same volume of a bacterial suspension containing 10^5 CFU/ml was added to each of the previous solutions, resulting in final compound concentrations from 10 to 1.25 μg/ml. […] All conditions were tested in triplicate and the results shown are representative of three independent assays.

[2] = test system: Staphylococcus aureus ATCC 29212; assay: MIC, broth microdilution; assay type: cell-based; conditions: for MIC: Staphylococcus aureus, ATCC29212; for Antibacterial activity in initial screening, S. aureus: concentration of 10 μg/ml
Method: as §1

[3] = test system: Streptococcus pyogenes ATCC 19615; assay: MIC, broth microdilution; assay type: cell-based; conditions: for MIC: Streptococcus pyogenes, ATCC19615; for Antibacterial activity in initial screening, S. pyogenes: concentration of 10 μg/ml
Method: as §1

MRSA Strain 6154 [4] = assay: MIC, broth microdilution; assay type: cell-based; conditions: Staphylococcus aureus, clinical strain, read-out: MIC MRSA Strain 6154
Method: as §1

MRSA Strain 5912 [5] = assay: MIC, broth microdilution; assay type: cell-based; conditions: Staphylococcus aureus, clinical strain, read-out: MIC MRSA Strain 5912
Method: as §1

MRSA Strain 6613 [6] = assay: MIC, broth microdilution; assay type: cell-based; conditions: Staphylococcus aureus, clinical strain, read-out: MIC MRSA Strain 6613
Method: as §1

MRSA strains [7] = assay: MIC, broth microdilution, MRSA strains taken together; assay type: cell-based; conditions: Staphylococcus aureus; over the six MRSA strains (CPD18: four out of six); read-out: MIC against MRSA strains
Method: as §1

MRSA strains [8] = assay: MBC, MRSA strains taken together; assay type: cell-based, Staphylococcus aureus; conditions: concentrations tested (up to 10 μg/ml)
Method: (§2) After incubation at 35°C for 24 hr, the colonies were counted and the percentage of inhibition was calculated. MBC is defined as the lowest compound's concentration that inhibits at least 99.9% of the bacterial cell count compared to nontreated viability control (Clinical and Laboratory Standards Institute, 1999).

[9] = Cytotoxicity, MTT reduction assay; assay type: cell-based; conditions: African green monkey, 48 hr
Method: (§3) The cytotoxicity of active compounds to mammalian cells was assessed using the MTT reduction assay (Mosmann, 1983). Vero and BSC‐40 cells were seeded in 96‐well plates (8 × 10^4 cells per well) and incubated at 37°C and 5% CO2 atmosphere. After 24 hr of incubation, 200 μL of fresh medium containing a serial dilution of compounds (10–1.25 μg/ml) were added to the plates. After 48 hr of incubation in the same conditions, 100 μL of MTT solution in MEM or DMEM (5 mg/ml) was added to each well and incubated for 3 hr at 37°C and 5% CO2 atmosphere. The medium was removed and 100 μL of DMSO was used to solubilize formazan crystals. Absorbance at 570 nm of each well was read using a spectrophotometer (VersaMax, Molecular Devices).

S. pyogenes ATCC 19615 = assay: MBC, plating of wells without growth; assay type: cell-based; conditions: Streptococcus pyogenes, ATCC19615; at least 99.9% inhibition of cell count
Method: as §2

MRSA Strain 5749 [10] = assay: MBC, plating of wells without growth; assay type: cell-based; conditions: Staphylococcus aureus
Method: as §2

MRSA Strain 6154 [11] = assay: MBC, plating of wells without growth; assay type: cell-based; conditions: Staphylococcus aureus
Method: as §2

S. aureus ATCC 29212 = assay: MBC, plating of wells without growth; assay type: cell-based; conditions: Staphylococcus aureus, ATCC29212; at least 99.9% inhibition of cell count
Method: as §2

MRSA Strain 5912 [12] = assay: MBC, plating of wells without growth; assay type: cell-based; conditions: Staphylococcus aureus
Method: as §2

MRSA Strain 6613 [13] = assay: MBC, plating of wells without growth; assay type: cell-based; conditions: Staphylococcus aureus
Method: as §2

[14] = test system: Gram‐positive bacteria (E. faecalis, S. aureus and S. pyogenes); assay: MIC, broth microdilution, Gram‐positive bacteria taken together; assay type: cell-based; conditions: Staphylococcus aureus; over different bacterial strains, including MRSA where stated; read-out: MIC against Gram‐positive bacteria, summary
Method: as §1

MRSA ATCC 43300 [15] = assay: MIC, broth microdilution; assay type: cell-based; conditions: Staphylococcus aureus; — = no activity up to 10 μg/ml; read-out: MIC MRSA ATCC 43300
Method: as §1

MRSA Strain 6100 [16] = assay: MIC, broth microdilution; assay type: cell-based; conditions: Staphylococcus aureus, clinical strain, — = no activity up to 10 μg/ml, read-out: MIC MRSA Strain 6100
Method: as §1

[17] = test system: Enterococcus faecalis ATCC 29213; assay: MIC, broth microdilution; assay type: cell-based; conditions: for MIC: Enterococcus faecalis, ATCC29213; for Antibacterial activity in initial screening, E. faecalis: concentration of 10 μg/ml
Method: as §1

MRSA ATCC 43300 [18] = assay: MBC, plating of wells without growth; assay type: cell-based; conditions: Staphylococcus aureus
Method: as §2

MRSA Strain 6100 [19] = assay: MBC, plating of wells without growth; assay type: cell-based; conditions: Staphylococcus aureus
Method: as §2

E. faecalis ATCC 29213 = assay: MBC, plating of wells without growth; assay type: cell-based; conditions: Enterococcus faecalis, ATCC29213; at least 99.9% inhibition of cell count
Method: as §2

Vero cells = assay: Cytotoxicity, MTT reduction assay; assay type: cell-based; conditions: bacterial strain not stated
Method: as §3

BSC‐40 cells = assay: Cytotoxicity, MTT reduction assay; assay type: cell-based; conditions: BSC‐40; bacterial strain not stated
Method: as §3

[20] = 24 hr, 35°C, read-out: MIC Staphylococcus aureus ATCC 29212
[21] = read-out: MIC against S. aureus
[22] = 24 hr, 35°C, read-out: MIC Streptococcus pyogenes ATCC 19615
[23] = read-out: MIC against S. pyogenes
[24] = BSC-40 cells, BSC‐40, MTT, read-out: CC50
[25] = BSC-40 cells, BSC‐40, MTT, read-out: CC50 ± SD
[26] = Vero cells, MTT, read-out: CC50
[27] = Vero cells, MTT, read-out: CC50 ± SD
[28] = 24 hr, 35°C, — = no activity up to 10 μg/ml, read-out: MIC Enterococcus faecalis ATCC 29213
[29] = read-out: MIC against E. faecalis

| MIC (MRSA Strain 5749 [1]) [µM] | MIC [2, 20] [µM] | MIC [2, 21] [µg/mL] | MIC [3, 22] [µM] | MIC [3, 23] [µg/mL] | MIC (MRSA Strain 6154 [4]) [µM] | MIC (MRSA Strain 5912 [5]) [µM] | MIC (MRSA Strain 6613 [6]) [µM] | MIC (MRSA strains [7]) | Compound | Antibacterial activity in initial screening, S. aureus [2] | Antibacterial activity in initial screening, S. pyogenes [3] | CC50 at 48 h [9, 25] [µM] | CC50 at 48 h [9, 26] [µg/mL] | CC50 at 48 h [9, 27] [µM] | MBC (S. pyogenes ATCC 19615) [µM] | MBC (MRSA Strain 5749 [10]) [µM] | MBC (MRSA Strain 6154 [11]) [µM] | MBC (S. aureus ATCC 29212) [µM] | MBC (MRSA Strain 5912 [12]) [µM] | MBC (MRSA Strain 6613 [13]) [µM] | other results |
| --- | --- | --- | --- | --- | --- | --- | --- | --- | --- | --- | --- | --- | --- | --- | --- | --- | --- | --- | --- | --- | --- |
| 28.7 (≈ 8.95 µg/mL) | 28.7 | 10 | 28.7 | 10 | 28.7 (≈ 8.95 µg/mL) | 28.7 (≈ 8.95 µg/mL) | 28.7 (≈ 8.95 µg/mL) | 10 µg/mL and 28.7 µM | NC(COc1ccc(Cl)cc1)COc1ccc(Cl)cc1 [CPD18] | showed activity | showed activity | 16.4 ± 0.52 | 5.99 ± 0.09 | 17.2 ± 0.26 | > 28.7 | > 28.7 | > 28.7 | > 28.7 | > 28.7 | > 28.7 | Bactericidal activity against MRSA strains (MRSA strains [8]): no bactericidal activity was observed; CC50 at 48 h [9, 24]: 5.73 ± 0.18 µg/mL; MIC [14]: 10 µg/mL and 28.7 µM |
| 6.58 (≈ 2.26 µg/mL) | 6.58 | 2.5 | 6.58 | 2.5 | 6.58 (≈ 2.26 µg/mL) | 6.58 (≈ 2.26 µg/mL) | 6.58 (≈ 2.26 µg/mL) | 2.5 µg/mL and 6.58 µM | NC(COc1cccc2ccccc12)COc1cccc2ccccc12 [CPD20] | inhibited the growth | inhibited the growth | 6.58 ± 1.97 | 3.79 ± 0.6 | 9.98 ± 1.58 | 6.58 (≈ 2.26 µg/mL) | 6.58 (≈ 2.26 µg/mL) | 26.3 (≈ 9.04 µg/mL) | 26.3 (≈ 9.04 µg/mL) | 6.58 (≈ 2.26 µg/mL) | 6.58 (≈ 2.26 µg/mL) | MIC (MRSA ATCC 43300 [15]): 6.58 µM (≈ 2.26 µg/mL); MIC (MRSA Strain 6100 [16]): 6.58 µM (≈ 2.26 µg/mL); MIC [17, 28]: 13.2 µM; MIC [17, 29]: 5 µg/mL; Antibacterial activity in initial screening, E. faecalis [17]: inhibited the growth; CC50 at 48 h [9, 24]: 2.5 ± 0.75 µg/mL; MBC (MRSA ATCC 43300 [18]): 13.2 µM (≈ 4.52 µg/mL); MBC (MRSA Strain 6100 [19]): 6.58 µM (≈ 2.26 µg/mL); MBC (E. faecalis ATCC 29213): 26.3 µM (≈ 9.04 µg/mL); MIC [14]: 2.5 µg/mL to 5 µg/mL and 6.58 µM to 13.2 µM |

| Compound | MIC (MRSA Strain 5749 [1]) [µM] | MIC [2, 20] [µM] | MIC [2, 21] [µg/mL] | MIC [3, 22] [µM] | MIC [3, 23] [µg/mL] | MIC (MRSA Strain 6154 [4]) [µM] | MIC (MRSA Strain 5912 [5]) [µM] | MIC (MRSA Strain 6613 [6]) [µM] | MIC (MRSA strains [7]) | Antibacterial activity in initial screening, S. aureus [2] | Antibacterial activity in initial screening, S. pyogenes [3] | CC50 at 48 h [9, 25] [µM] | CC50 at 48 h [9, 26] [µg/mL] | CC50 at 48 h [9, 27] [µM] | MBC (S. pyogenes ATCC 19615) [µM] | MBC (MRSA Strain 5749 [10]) [µM] | MBC (MRSA Strain 6154 [11]) [µM] | MBC (S. aureus ATCC 29212) [µM] | MBC (MRSA Strain 5912 [12]) [µM] | MBC (MRSA Strain 6613 [13]) [µM] | other results |
| --- | --- | --- | --- | --- | --- | --- | --- | --- | --- | --- | --- | --- | --- | --- | --- | --- | --- | --- | --- | --- | --- |
| Cl.NC(COc1ccc(Cl)c(Cl)c1)COc1ccc(Cl)c(Cl)c1 [CPD22, 1,3‐Bis(3,4‐dichlorophenoxy)propan‐2‐aminium chloride] | 5.99 | 12 | 5 | 5.99 | 2.5 | 5.99 | 5.99 | 12 | 2.5 µg/mL to 5 µg/mL and 5.99 µM to 12 µM | inhibited the growth | inhibited the growth | 10.6 ± 3.16 | 5.47 ± 1.89 | 13.1 ± 4.53 | 23.9 | 5.99 | > 23.9 | 12 | 5.99 | 12 | MIC (MRSA ATCC 43300 [15]): 12 µM; MIC (MRSA Strain 6100 [16]): 5.99 µM; MIC [17, 28]: 12 µM; MIC [17, 29]: 5 µg/mL; Antibacterial activity in initial screening, E. faecalis [17]: inhibited the growth; Selective Index (SI), higher value (Vero cells): 2.19; Selective Index (SI), higher value (BSC‐40 cells): 1.77; melting point: 224.1 to 225.6 °C; MBC (MRSA ATCC 43300 [18]): 12 µM; MBC (MRSA Strain 6100 [19]): 23.9 µM; MBC (E. faecalis ATCC 29213): > 23.9 µM; MIC [14]: 2.5 µg/mL to 5 µg/mL and 5.99 µM to 12 µM |
